From ChEMBL document CHEMBL1130052, “Substituted [(4-phenylpiperazinyl)-methyl]benzamides: selective dopamine D4 agonists” (J Med Chem, 1997)

Assays:
D(2) dopamine receptor = D(2) dopamine receptor (Homo sapiens, UniProt P14416); assay: Binding affinity for human Dopamine receptor D2 expressed in CHO K1 transfected cells using [3H]spiperone as radioligand; format: cell-based
D(4) dopamine receptor = target: T1, D(4) dopamine receptor (Homo sapiens, UniProt P21917); assay: biochemical
T1 sequence (P21917 whole entry): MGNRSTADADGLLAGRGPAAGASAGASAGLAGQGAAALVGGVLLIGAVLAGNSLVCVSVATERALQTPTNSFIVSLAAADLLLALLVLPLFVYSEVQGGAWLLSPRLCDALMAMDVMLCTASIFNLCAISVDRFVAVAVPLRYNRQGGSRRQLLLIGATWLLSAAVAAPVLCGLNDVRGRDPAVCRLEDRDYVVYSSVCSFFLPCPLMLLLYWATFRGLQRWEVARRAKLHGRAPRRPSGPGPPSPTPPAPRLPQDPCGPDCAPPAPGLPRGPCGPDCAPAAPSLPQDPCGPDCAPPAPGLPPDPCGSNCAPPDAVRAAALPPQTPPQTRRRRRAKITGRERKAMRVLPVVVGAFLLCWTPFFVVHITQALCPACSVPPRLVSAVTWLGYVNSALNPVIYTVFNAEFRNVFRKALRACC
Description: Binding affinity for human Dopamine receptor D4 expressed in CHO K1 transfected cells using [3H]spiperone as radioligand

D(3) dopamine receptor = D(3) dopamine receptor (Homo sapiens, UniProt P35462); assay: Binding affinity for human Dopamine receptor D3 expressed in CHO K1 transfected cells using [3H]spiperone as radioligand; format: cell-based
D(3) dopamine receptor, sequence (P35462 whole entry): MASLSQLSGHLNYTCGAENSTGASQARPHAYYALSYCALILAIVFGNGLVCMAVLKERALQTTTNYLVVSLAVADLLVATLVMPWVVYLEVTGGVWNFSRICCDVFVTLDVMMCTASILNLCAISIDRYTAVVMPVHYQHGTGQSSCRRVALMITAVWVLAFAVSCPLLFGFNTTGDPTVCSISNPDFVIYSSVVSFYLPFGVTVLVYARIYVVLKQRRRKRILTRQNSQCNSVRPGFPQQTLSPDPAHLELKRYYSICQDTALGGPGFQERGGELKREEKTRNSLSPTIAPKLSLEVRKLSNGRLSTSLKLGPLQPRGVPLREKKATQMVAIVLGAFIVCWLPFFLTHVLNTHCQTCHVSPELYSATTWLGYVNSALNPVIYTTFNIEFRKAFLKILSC

[1] = target: T2, 5-hydroxytryptamine receptor 1A (Mus musculus, UniProt Q64264); assay: Binding affinity at 5-hydroxytryptamine 1A receptor
T2 sequence (Q64264 whole entry): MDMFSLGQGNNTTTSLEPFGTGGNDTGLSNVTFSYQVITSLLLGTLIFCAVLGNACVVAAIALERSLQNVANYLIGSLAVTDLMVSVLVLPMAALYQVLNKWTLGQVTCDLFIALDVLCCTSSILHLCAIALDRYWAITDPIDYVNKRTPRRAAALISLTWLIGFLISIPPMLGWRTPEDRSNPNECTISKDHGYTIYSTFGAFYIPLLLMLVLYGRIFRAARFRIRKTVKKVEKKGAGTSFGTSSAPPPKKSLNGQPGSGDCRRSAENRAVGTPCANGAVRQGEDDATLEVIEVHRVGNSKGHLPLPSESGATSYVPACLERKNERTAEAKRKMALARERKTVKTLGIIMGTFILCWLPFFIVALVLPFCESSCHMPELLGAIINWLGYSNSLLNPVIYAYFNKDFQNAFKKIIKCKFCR

[2] = target: 5-hydroxytryptamine receptor 2A (Homo sapiens, UniProt P28223); assay: Binding affinity at 5-hydroxytryptamine 2A receptor
5-hydroxytryptamine receptor 2A, sequence (P28223 whole entry): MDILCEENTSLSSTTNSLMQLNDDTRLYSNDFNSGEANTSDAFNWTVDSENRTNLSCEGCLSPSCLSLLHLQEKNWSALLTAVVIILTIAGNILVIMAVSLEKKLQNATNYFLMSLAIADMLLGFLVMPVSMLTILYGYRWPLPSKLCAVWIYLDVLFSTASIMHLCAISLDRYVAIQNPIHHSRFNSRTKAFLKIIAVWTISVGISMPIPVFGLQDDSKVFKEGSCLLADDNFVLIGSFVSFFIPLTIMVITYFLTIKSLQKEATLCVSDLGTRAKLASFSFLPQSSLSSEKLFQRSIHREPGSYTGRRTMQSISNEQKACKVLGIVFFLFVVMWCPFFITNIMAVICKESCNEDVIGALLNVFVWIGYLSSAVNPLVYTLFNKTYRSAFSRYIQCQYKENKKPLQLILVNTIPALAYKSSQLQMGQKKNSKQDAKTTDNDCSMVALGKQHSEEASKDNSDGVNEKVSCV

D(2) dopamine receptor, sequence (P14416 whole entry): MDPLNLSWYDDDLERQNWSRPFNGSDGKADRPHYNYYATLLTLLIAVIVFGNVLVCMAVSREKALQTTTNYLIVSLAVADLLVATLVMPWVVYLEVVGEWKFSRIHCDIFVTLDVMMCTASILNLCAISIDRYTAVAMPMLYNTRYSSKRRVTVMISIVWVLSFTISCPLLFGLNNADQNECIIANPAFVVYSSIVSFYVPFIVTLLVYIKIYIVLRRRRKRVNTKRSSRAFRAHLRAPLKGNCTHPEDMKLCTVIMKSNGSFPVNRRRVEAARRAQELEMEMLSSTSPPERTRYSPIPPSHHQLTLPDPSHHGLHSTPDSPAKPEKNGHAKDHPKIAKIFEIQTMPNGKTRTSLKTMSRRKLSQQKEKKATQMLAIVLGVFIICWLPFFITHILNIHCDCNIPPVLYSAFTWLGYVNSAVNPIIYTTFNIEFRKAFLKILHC

SMILES | Ki (D(2) dopamine receptor) | Ki (D(4) dopamine receptor) | Ki (D(3) dopamine receptor) | Ki [1] | Ki [2]
O=C(NCN1CCN(c2ccccc2Cl)CC1)c1cccc(Cl)c1 | 2420 nM | 41 nM | 364 nM | – | –
COc1ccccc1N1CCN(CNC(=O)c2cccc(C)c2)CC1 | 835 nM | 6.7 nM | 2480 nM | – | –
O=C(NCN1CCN(c2ccccc2Cl)CC1)c1ccc(Cl)cc1 | – | 5.3 nM | 66 nM | – | –
Cc1cccc(C(=O)NCN2CCN(c3ccccc3Cl)CC2)c1 | 1330 nM | 27 nM | 464 nM | – | –
O=C(NCN1CCN(c2ccccc2Cl)CC1)c1ccccc1 | 1500 nM | 32 nM | 177 nM | – | –
Cc1ccc(C(=O)NCN2CCN(c3ccccc3C#N)CC2)cc1 | 1150 nM | 6.5 nM | 377 nM | – | –
N#Cc1ccccc1N1CCN(CNC(=O)c2ccccc2)CC1 | 4180 nM | 27 nM | > 3000 nM | – | –
COc1ccccc1N1CCN(CNC(=O)c2ccccc2)CC1 | – | 22 nM | 2470 nM | – | –
COc1ccccc1N1CCN(CNC(=O)c2cccc(Cl)c2)CC1 | 451 nM | 15 nM | 1450 nM | – | –
COc1ccccc1N1CCN(CNC(=O)c2ccc(Cl)cc2)CC1 | 349 nM | 14 nM | 268 nM | – | –
N#Cc1ccccc1N1CCN(CNC(=O)c2cccc(Cl)c2)CC1 | 897 nM | 34 nM | 2270 nM | – | –
N#Cc1ccccc1N1CCN(CNC(=O)c2ccc(Cl)cc2)CC1 | 929 nM | 5.5 nM | 600 nM | – | –
COc1ccccc1N1CCN(CNC(=O)c2ccc(C)cc2)CC1 | 291 nM | 7.7 nM | 174 nM | – | –
Cc1ccc(C(=O)NCN2CCN(c3ccccc3Cl)CC2)cc1 | 466 nM | 12 nM | 49 nM | – | –
Cc1cccc(C(=O)NCN2CCN(c3ccccc3C#N)CC2)c1 [PD-168,077] | 3740 nM | – | 2810 nM | 385 nM | 4010 nM
